This is an account of results in PMC6277375, “Pharmacological profile of the neuropeptide S receptor: Dynamic mass redistribution studies” (Pharmacology Research & Perspectives, 2018).

Assay [1] addresses T1, murine NPSR (Mus musculus, UniProt Q8BZP8).
T1 construct: expressed in transfected cells
T1 sequence (Q8BZP8 1-371): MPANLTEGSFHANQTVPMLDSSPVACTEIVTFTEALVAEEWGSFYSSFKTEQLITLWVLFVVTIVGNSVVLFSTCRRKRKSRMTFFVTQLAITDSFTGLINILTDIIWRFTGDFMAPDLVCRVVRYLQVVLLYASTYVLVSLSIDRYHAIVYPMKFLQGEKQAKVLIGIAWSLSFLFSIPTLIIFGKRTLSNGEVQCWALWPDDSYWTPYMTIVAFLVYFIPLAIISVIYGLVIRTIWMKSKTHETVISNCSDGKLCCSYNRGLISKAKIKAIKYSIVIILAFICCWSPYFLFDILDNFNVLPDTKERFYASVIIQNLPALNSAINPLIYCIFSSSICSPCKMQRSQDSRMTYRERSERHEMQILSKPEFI
Put plainly: Calcium mobilization assay in HEK293mNPSR cells. In kind it is cell-based. The following applies: FR900359 injected 24 minute before NPS, Fluo-4 AM, FlexStation II, 37°C. Here is the method:
Cells were seeded at a density of 50 000 cells/well in 100 μL into poly‐D‐lysine coated 96‐well black, clear‐bottom plates. The following day, cells were incubated with medium supplemented with 2.5 mmol L^−1 probenecid, 3 μmol L^−1 of the calcium sensitive fluorescent dye Fluo‐4 AM and 0.01% pluronic acid, for 30 minute at 37°C. Following this, the loading solution was aspirated and 100 μL of HBSS supplemented with 20 mmol L^−1 HEPES, 2.5 mmol L^−1 probenecid and 500 μmol L^−1 Brilliant Black were added. Cell culture and drug plates were placed into a fluorimetric imaging plate reader (FlexStation II, Molecular Devices, Sunnyvale, CA) and fluorescent changes were measured. On‐line additions were carried out in a volume of 50 μL/well. To facilitate drug diffusion into the wells, the present studies were performed at 37°C and three cycles of mixing (25 μL from each well moved up and down three times) were performed immediately after FR900359 injection to the wells. FR900359 was injected into the wells 24 minute before adding NPS.
All data were analyzed using Graph Pad Prism 6.0 (La Jolla, CA, USA). […] Data are expressed as mean ± SEM of n experiments performed in duplicate and were analyzed using one‐ or two‐way analysis of variance (ANOVA) followed by Dunnett's or Tukey's test for multiple comparisons wherever appropriate. […]
On the technique in general: Calcium flux is commonly read through the fluorescence of an indicator in the cells.

In assay [2] the target is T1, murine NPSR. Put plainly: Dynamic mass redistribution (DMR) assay in HEK293mNPSR cells. In kind it is cell-based. The following applies: for DMR response, HEK293mNPSR pm ± SEM: peak at 60 minute, mean ± SEM, duplicate. Here is the method:
(§1) HEK293 cells stably expressing the murine NPSR receptor (HEK293mNPSR) were described previously.3 Wild‐type HEK293 cells were used as a control. Cells were maintained in Dulbecco's Medium (DMEM) supplemented with 10% fetal bovine serum, 100 U/mL penicillin, 100 μg/mL streptomycin and, 2 mmol L^−1 L‐glutamine. The medium was complemented with 100 mg/L hygromycin for HEK293mNPSR. Cells were cultured at 37°C in 5% CO2 humidified air.
Confluent cells were subcultured using trypsin/EDTA and used for experiments. […] On the day of the experiment, cells were manually washed twice and maintained with assay buffer for 90 minutes before DMR experiments. DMR was monitored in real time with a temporal resolution of 22 seconds throughout the assay. Experiments were performed at 37°C, using an EnSight Multimode Plate Reader (PerkinElmer), that uses the Corning® Epic® Technology to measure the DMR signal. Agonism protocol: a 5‐minute baseline was first established, followed by adding compounds manually in a volume of 10 μL and recording compounds‐triggered DMR signal for 60 minute. Antagonism protocol: antagonists were added manually 25 minute before reading the 5‐minute baseline. After baseline establishment, NPS was injected and DMR signal was recorded for 60 minute. Antagonist properties of ligands were measured by assessing the concentration‐response curve to NPS in the absence and in presence of a fixed concentration of compound. FR900359 was added 60 minute before NPS, rolipram was incubated for 90 minute before NPS, while PTX was added 24 hours before NPS. Maximum picometer (pm) modifications (peak measured at 60 minute time point) were used to determine agonist response after baseline normalization.
All data were analyzed using Graph Pad Prism 6.0 (La Jolla, CA, USA). Concentration‐response curves were fitted using the four parameters log logistic equation. Data are expressed as mean ± SEM of n experiments performed in duplicate and were analyzed using one‐ or two‐way analysis of variance (ANOVA) followed by Dunnett's or Tukey's test for multiple comparisons wherever appropriate. […] Antagonists potencies were assayed at single concentrations against the concentration‐response curve to NPS and their pA2 was derived using the following equation: pA2 = log(CR − 1) − log[A], where CR is the ratio between agonist potency (EC50) in the presence and in absence of antagonist and [A] is the molar concentration of antagonist.

The subject of the next assay is HEK293mNPSR cells. Put plainly: DMR response to NECA with and without rolipram in HEK293mNPSR cells. In kind it is cell-based. The following applies: NECA 10 μmol L^−1 + rolipram 10 μmol L^−1 (90 minute before), P < 0.05 vs NECA alone. The procedure:
Confluent cells were subcultured using trypsin/EDTA and used for experiments. Cells were seeded at a density of 20 000 cells/well in 30 μL into fibronectin‐coated Enspire™‐LC 384‐wells plates and cultured for 20 hours to form a confluent monolayer. On the day of the experiment, cells were manually washed twice and maintained with assay buffer for 90 minutes before DMR experiments. DMR was monitored in real time with a temporal resolution of 22 seconds throughout the assay. Experiments were performed at 37°C, using an EnSight Multimode Plate Reader (PerkinElmer), that uses the Corning® Epic® Technology to measure the DMR signal. Agonism protocol: a 5‐minute baseline was first established, followed by adding compounds manually in a volume of 10 μL and recording compounds‐triggered DMR signal for 60 minute. Antagonism protocol: antagonists were added manually 25 minute before reading the 5‐minute baseline. After baseline establishment, NPS was injected and DMR signal was recorded for 60 minute. Antagonist properties of ligands were measured by assessing the concentration‐response curve to NPS in the absence and in presence of a fixed concentration of compound. […] Maximum picometer (pm) modifications (peak measured at 60 minute time point) were used to determine agonist response after baseline normalization. […]

Another assay concerns wild-type HEK293 cells. Kind of assay: DMR assay in wild-type HEK293 cells (control). In kind it is cell-based, Human. The following applies: ligand 10 μmol L^−1, 37°C, peak at 60 minute after baseline normalization, mean ± SEM, duplicate. The procedure: as §1
Confluent cells were subcultured using trypsin/EDTA and used for experiments. Cells were seeded at a density of 20 000 cells/well in 30 μL into fibronectin‐coated Enspire™‐LC 384‐wells plates and cultured for 20 hours to form a confluent monolayer. On the day of the experiment, cells were manually washed twice and maintained with assay buffer for 90 minutes before DMR experiments. DMR was monitored in real time with a temporal resolution of 22 seconds throughout the assay. Experiments were performed at 37°C, using an EnSight Multimode Plate Reader (PerkinElmer), that uses the Corning® Epic® Technology to measure the DMR signal. Agonism protocol: a 5‐minute baseline was first established, followed by adding compounds manually in a volume of 10 μL and recording compounds‐triggered DMR signal for 60 minute. Antagonism protocol: antagonists were added manually 25 minute before reading the 5‐minute baseline. After baseline establishment, NPS was injected and DMR signal was recorded for 60 minute. Antagonist properties of ligands were measured by assessing the concentration‐response curve to NPS in the absence and in presence of a fixed concentration of compound. FR900359 was added 60 minute before NPS, rolipram was incubated for 90 minute before NPS, while PTX was added 24 hours before NPS. Maximum picometer (pm) modifications (peak measured at 60 minute time point) were used to determine agonist response after baseline normalization.
All data were analyzed using Graph Pad Prism 6.0 (La Jolla, CA, USA). Concentration‐response curves were fitted using the four parameters log logistic equation. Data are expressed as mean ± SEM of n experiments performed in duplicate and were analyzed using one‐ or two‐way analysis of variance (ANOVA) followed by Dunnett's or Tukey's test for multiple comparisons wherever appropriate. Agonist potency was expressed as pEC50, which is the negative logarithm to base 10 of the agonist molar concentration that produces 50% of the maximal possible effect of that agonist. Antagonists potencies were assayed at single concentrations against the concentration‐response curve to NPS and their pA2 was derived using the following equation: pA2 = log(CR − 1) − log[A], where CR is the ratio between agonist potency (EC50) in the presence and in absence of antagonist and [A] is the molar concentration of antagonist.

In another assay the test system is NPSR. The following applies: cited from earlier work. The text has this: The pharmacological profile of NPSR in the DMR assay has been investigated using several NPSR ligands acting as full and partial agonists and pure antagonists in the calcium mobilization assay. The DMR effects of these compounds solely derive from their capability to activate NPSR since we selected their concentration range based on lack of DMR signal in wild‐type cells. Overall, the DMR pharmacological profile of NPSR looks similar but not identical to that reported in literature using the calcium mobilization assay. The first aspect that deserves attention is related to the efficacy of NPSR ... || Regarding NPSR agonists, another point that must be addressed is the pharmacological behavior of PWT1‐NPS. […] The high in vitro potency of PWT1‐NPS was associated with a high in vivo potency and long‐lasting duration of action.31 These features seem to be common to PWT derivatives of other neuropeptides including nociceptin/orphanin FQ, opioids and tachykinins (reviewed in 40). In DMR experiments, we were not able to fully investigate the pharmacologic ...

“And” between values parts separate entries of the source, which are not always exact repeats. Identical values can stand only once. Marks after values point to notes of the source that are not given here. Numbered stars: 1 amine (or outer) side, 2 acyl side, 3 side chain; on linkers, the order of the positions; unused ones are H or OH. Bridge positions count the residues as written; N and C are the ends. Square brackets hold non-standard residues; d marks the D form. Peptide text beside a SMILES is read from it. * marks the point of attachment. Leu(3R-OH,Nα-propionyl) = CCC(=O)N[C@H](C(=O)*)[C@H](O)C(C)C; X1 = CC(C)[C@@H](O[*:3])[C@H](N[*:1])C(=O)[*:2]; NMeT = CN[C@H](C(=O)O)[C@@H](C)O; dPhLac = O=C(O)[C@H](O)Cc1ccccc1; NMeA = CN[C@@H](C)C(=O)O; NMeDha = C=C(NC)C(=O)O

On to `C=C1C(=O)N[C@@H](C)C(=O)N(C)[C@@H](C)C(=O)N[C@@H]([C@H](OC(=O)[C@@H](NC(=O)CC)[C@H](O)C(C)C)C(C)C)C(=O)N(C)[C@@H]([C@@H](C)OC)C(=O)O[C@H](C(C)C)[C@H](NC(C)=O)C(=O)O[C@H](Cc2ccccc2)C(=O)N1C` [FR900359, [(1R)‐1‐[(3S,6S,9S,12S,18R,21S,22R)‐21‐acetamido‐18‐benzyl‐3‐[(1R)‐1‐methoxyethyl]‐4,9,10,12,16‐pentamethyl‐15‐methylidene‐2,5,8,11,14,17,20‐heptaoxo‐22‐propan‐2‐yl‐1,19‐dioxa‐4,7,10,13,16‐pentazacyclodocos‐6‐yl]‐2‐methylpropyl] (2S,3R)‐3‐hydroxy‐4‐methyl‐2‐(propanoylamino)pentanoate, reference compound] (Ac-[X1][dPhLac][NMeDha]A[NMeA][X1](Leu(3R-OH,Nα-propionyl))[NMeT](Me); ester 1-C), for which the “Effect of inhibitor on NPS stimulated calcium mobilization” value on murine NPSR [1] was “completely abolished”. The “Effect of inhibitor on NPS-evoked DMR response” value on murine NPSR [2] (FR900359 1 μmol L^−1 (60 minute before NPS), PTX 100 ng mL^−1 (24 hours before), rolipram 10 μmol L^−1 (90 minute before)) was “strongly, but not completely, reduced NPS effects”.
Regarding `CCNC(=O)[C@H]1O[C@@H](n2cnc3c(N)ncnc32)[C@H](O)[C@@H]1O` [NECA, (2S,3S,4R,5R)‐5‐(6‐aminopurin‐9‐yl)‐N‐ethyl‐3,4‐dihydroxyoxolane‐2‐carboxamide, reference compound], the “DMR response of NECA in presence of rolipram” value with HEK293mNPSR cells was 464 ± 58 pm. For the same compound, the “DMR response, HEK293mNPSR pm ± SEM” value on murine NPSR [2] (ligand 10 μmol L^−1, 37°C) is 229 ± 18 pm and 229 ± 18 ^a pm. For the same compound, the “DMR response, HEK293 pm ± SEM” value with wild-type HEK293 cells is reported as 312 ± 28 ^a pm.
On to [D‐Cys(^tBu)^5]NPS, for which, in the assay on NPSR, the “behaviour in the calcium mobilization assay” value is “pure NPSR antagonist”. On murine NPSR [2] (ligand 1 μmol L^−1, 37°C), the “DMR response, HEK293mNPSR pm ± SEM” value is 387 ± 43 pm and 387 ± 43 ^a pm. The “DMR response as % of NPS maximal effect” value on murine NPSR [2] (ligand 1 μmol L^−1 alone) came out at 58%.
